PMC9516332 (Frontiers in Oncology, 2022)
pIC50: −log10 of the molar value. Where two headings read alike, the source gives them in different places.

System: 134 cancer cell lines
Experiment: Cell viability assay (ATPlite, 72 hours), IC50 on cancer cell line panel

## CCCS(=O)(=O)Nc1ccc(F)c(C(=O)c2c[nH]c3ncc(-c4ccc(Cl)cc4)cc23)c1F [vemurafenib]
Homo sapiens, MIA PaCa-2, read-out: IC50 in cell proliferation assay, MIA PaCa-2 cell line
  pIC50: < 4.50
Homo sapiens, MKN-45, read-out: IC50 in cell proliferation assay, MKN45 cell line (MET amplification)
  pIC50: < 4.50
Homo sapiens, MOLM-13, read-out: IC50 in cell proliferation assay, MOLM-13 cell line (FLT3 ITD)
  pIC50: 5.05
Homo sapiens, MOLT-4, read-out: IC50 in cell proliferation assay, MOLT-4 cell line
  pIC50: 4.51
Homo sapiens, MV4-11, read-out: IC50 in cell proliferation assay, MV4-11 cell line (FLT3 ITD)
  pIC50: 4.51
Homo sapiens, MeWo, read-out: IC50 in cell proliferation assay, MeWo cell line
  pIC50: < 4.50
Homo sapiens, NCCIT, read-out: IC50 in cell proliferation assay, NCC-IT cell line
  pIC50: 4.59
Homo sapiens, NCI-H82, read-out: IC50 in cell proliferation assay, cell line NCI-H82
  pIC50: 4.64
Homo sapiens, NCI-H460, read-out: IC50 in cell proliferation assay, NCI-H460 cell line
  pIC50: 4.57
Homo sapiens, NCI-H661, read-out: IC50 in cell proliferation assay, NCI-H661 cell line
  pIC50: < 4.50
Homo sapiens, NCI-H716, read-out: IC50 in cell proliferation assay, cell line NCI-H716 (FGFR2-COL14A1)
  pIC50: < 4.50
Homo sapiens, NCI-H1650, read-out: IC50 in cell proliferation assay, NCI-H1650 cell line (EGFR exon19del)
  pIC50: < 4.50
Homo sapiens, NCI-H1975, read-out: IC50 in cell proliferation assay, NCI-H1975 cell line (EGFR p.L858R + p.T790M)
  pIC50: < 4.50
Homo sapiens, NCI-H2228, read-out: IC50 in cell proliferation assay, NCI-H2228 cell line (EML4-ALK)
  pIC50: < 4.50
Homo sapiens, OVCAR-3, read-out: IC50 in cell proliferation assay, cell line OVCAR-3
  pIC50: < 4.50
Homo sapiens, PFSK-1, read-out: IC50 in cell proliferation assay, cell line PFSK-1
  pIC50: < 4.50
Homo sapiens, RL95-2, read-out: IC50 in cell proliferation assay, cell line RL95-2 (EGFR p.A289V)
  pIC50: < 4.50
Homo sapiens, RPMI-7951, read-out: IC50 in cell proliferation assay, cell line RPMI-7951 (BRAF p.V600E)
  pIC50: 4.80
Homo sapiens, RS4-11, read-out: IC50 in cell proliferation assay, cell line RS4;11
  pIC50: < 4.50
Homo sapiens, Rec1, read-out: IC50 in cell proliferation assay, cell line REC-1
  pIC50: 5.09
Homo sapiens, SHP77, read-out: IC50 in cell proliferation assay, cell line SHP-77
  pIC50: < 4.50
Homo sapiens, SK-BR-3, read-out: IC50 in cell proliferation assay, cell line SK-BR-3 (ERBB2 amplification)
  pIC50: < 4.50
Homo sapiens, SK-N-AS, read-out: IC50 in cell proliferation assay, cell line SK-N-AS
  pIC50: < 4.50
Homo sapiens, SK-N-FI, read-out: IC50 in cell proliferation assay, cell line SK-N-FI
  pIC50: < 4.50
Homo sapiens, SK-N-MC, read-out: IC50 in cell proliferation assay, cell line SK-N-MC
  pIC50: < 4.50
Homo sapiens, SK-N-SH, read-out: IC50 in cell proliferation assay, cell line SK-N-SH (ALK p.F1174L)
  pIC50: < 4.50
Homo sapiens, SNU-5, read-out: IC50 in cell proliferation assay, cell line SNU-5 (MET amplification)
  pIC50: 4.50
Homo sapiens, SNU-16, read-out: IC50 in cell proliferation assay, cell line SNU-16 (FGFR2 amplification)
  pIC50: < 4.50
Homo sapiens, SNU-C2B, read-out: IC50 in cell proliferation assay, cell line SNU-C2B (EGFR p.R165Q)
  pIC50: < 4.50
Homo sapiens, SU-DHL-1, read-out: IC50 in cell proliferation assay, cell line SU-DHL-1 (NPM1-ALK)
  pIC50: 4.63
Homo sapiens, SU-DHL-6, read-out: IC50 in cell proliferation assay, cell line SU-DHL-6
  pIC50: < 4.50
Homo sapiens, SUP-T1, read-out: IC50 in cell proliferation assay, cell line SUP-T1
  pIC50: < 4.50
Homo sapiens, SW48, read-out: IC50 in cell proliferation assay, cell line SW48 (EGFR p.G719S)
  pIC50: < 4.50
Homo sapiens, SW480, read-out: IC50 in cell proliferation assay, cell line SW480
  pIC50: < 4.50
Homo sapiens, SW626, read-out: IC50 in cell proliferation assay, cell line SW626
  pIC50: < 4.50
Homo sapiens, SW780, read-out: IC50 in cell proliferation assay, cell line SW780 (FGFR3-BAIAP2L1)
  pIC50: < 4.50
Homo sapiens, SW837, read-out: IC50 in cell proliferation assay, cell line SW837
  pIC50: < 4.50
Homo sapiens, SW872, read-out: IC50 in cell proliferation assay, cell line SW872 (BRAF p.V600E)
  pIC50: 5.94
Homo sapiens, SW900, read-out: IC50 in cell proliferation assay, cell line SW900
  pIC50: 4.57
Homo sapiens, SW948, read-out: IC50 in cell proliferation assay, cell line SW948
  pIC50: < 4.50
Homo sapiens, SW982, read-out: IC50 in cell proliferation assay, cell line SW982 (BRAF p.V600E)
  pIC50: 4.65
Homo sapiens, SW-620, read-out: IC50 in cell proliferation assay, cell line SW620
  pIC50: < 4.50
Homo sapiens, T98G, read-out: IC50 in cell proliferation assay, cell line T98G
  pIC50: 4.72
Homo sapiens, TCC-SUP, read-out: IC50 in cell proliferation assay, cell line TCCSUP
  pIC50: < 4.50
Homo sapiens, THP-1, read-out: IC50 in cell proliferation assay, cell line THP-1
  pIC50: < 4.50
Homo sapiens, U2OS, read-out: IC50 in cell proliferation assay, cell line U2OS
  pIC50: < 4.50
Homo sapiens, U-87 MG, read-out: IC50 in cell proliferation assay, cell line U-87MG ATCC
  pIC50: < 4.50
Homo sapiens, U-118-MG, read-out: IC50 in cell proliferation assay, cell line U-118MG
  pIC50: < 4.50
Homo sapiens, UMUC3, read-out: IC50 in cell proliferation assay, cell line UM-UC-3
  pIC50: < 4.50
Hs766T, read-out: IC50 in cell proliferation assay, Hs 766T cell line
  pIC50: < 4.50
L-82, read-out: IC50 in cell proliferation assay, L-82 cell line (NPM1-ALK)
  pIC50: 4.57
Rh30, read-out: IC50 in cell proliferation assay, cell line Rh30
  pIC50: < 4.50
read-out: IC50 in cell proliferation assay, 11-18 cell line (EGFR p.L858R)
  pIC50: < 4.50
read-out: IC50 in cell proliferation assay, Hs 852.T cell line
  pIC50: < 4.50
read-out: IC50 in cell proliferation assay, JAR cell line
  pIC50: 4.83
read-out: IC50 in cell proliferation assay, cell line 5637
  pIC50: 4.60
read-out: IC50 in cell proliferation assay, cell line A-388
  pIC50: < 4.50
read-out: IC50 in cell proliferation assay, cell line DB
  pIC50: 4.61
read-out: IC50 in cell proliferation assay, cell line DEL (NPM1-ALK)
  pIC50: < 4.50
read-out: IC50 in cell proliferation assay, cell line ES-2 (BRAF p.V600E)
  pIC50: 5.63
read-out: IC50 in cell proliferation assay, cell line PA-1
  pIC50: 4.81
read-out: IC50 in cell proliferation assay, cell line PC-3
  pIC50: < 4.50
read-out: IC50 in cell proliferation assay, cell line RD
  pIC50: < 4.50
read-out: IC50 in cell proliferation assay, cell line RKO (BRAF p.V600E)
  pIC50: 5.51
read-out: IC50 in cell proliferation assay, cell line RL
  pIC50: 4.61
read-out: IC50 in cell proliferation assay, cell line RT-4 (FGFR3-TACC3)
  pIC50: < 4.50
read-out: IC50 in cell proliferation assay, cell line T24
  pIC50: 4.51
read-out: IC50 in cell proliferation assay, cell line TT (RET p.C634W)
  pIC50: < 4.50
read-out: IC50 in cell proliferation assay, cell line VA-ES-BJ
  pIC50: < 4.50
